Experimental data as given in ChEMBL document CHEMBL3102717, “Synthesis and biological evaluation of amino acid methyl ester conjugates of 2-cyano-3,12-dioxooleana-1,9(11)-dien-28-oic acid against the production of nitric oxide (NO)” (2014).
The source made the active and inactive calls. The calls are words filed in the database; no cut-off is given here.

Assays:
RAW264.7 [1] = experiment: Antioxidant activity in mouse RAW264.7 cells assessed as inhibition of tBHP-induced ROS production at 100 nM pretreated for 18 hrs before challenge measured after 15 mins by H2DCFA-based flow cytometry; assay type: functional, cell-based
RAW264.7 [2] = experiment: Antioxidant activity in mouse RAW264.7 cells assessed as inhibition of tBHP-induced ROS production at 10 nM pretreated for 18 hrs before challenge measured after 15 mins by H2DCFA-based flow cytometry; assay type: functional
[3] = Antiproliferative activity against mouse PANC1343 cells assessed as viable cells at 1uM after 72 hrs by MTT assay; assay type: functional; conditions: PANC-1, 72 h, read-out: Activity
RAW264.7 [4] = experiment: Inhibition of IFN-gamma-induced nitric oxide production in mouse RAW264.7 cells at 30 nM after 24 hrs by Griess method; assay type: functional, cell-based
[5] = biological target: T1, Nuclear factor erythroid 2-related factor 2 (Mus musculus) (UniProt Q60795); experiment: Induction of Nrf2-mediated HO-1 expression in mouse RAW264.7 cells at 30 to 300 nM after 6 hrs by Western blot method; assay type: cell-based
T1 sequence (whole entry): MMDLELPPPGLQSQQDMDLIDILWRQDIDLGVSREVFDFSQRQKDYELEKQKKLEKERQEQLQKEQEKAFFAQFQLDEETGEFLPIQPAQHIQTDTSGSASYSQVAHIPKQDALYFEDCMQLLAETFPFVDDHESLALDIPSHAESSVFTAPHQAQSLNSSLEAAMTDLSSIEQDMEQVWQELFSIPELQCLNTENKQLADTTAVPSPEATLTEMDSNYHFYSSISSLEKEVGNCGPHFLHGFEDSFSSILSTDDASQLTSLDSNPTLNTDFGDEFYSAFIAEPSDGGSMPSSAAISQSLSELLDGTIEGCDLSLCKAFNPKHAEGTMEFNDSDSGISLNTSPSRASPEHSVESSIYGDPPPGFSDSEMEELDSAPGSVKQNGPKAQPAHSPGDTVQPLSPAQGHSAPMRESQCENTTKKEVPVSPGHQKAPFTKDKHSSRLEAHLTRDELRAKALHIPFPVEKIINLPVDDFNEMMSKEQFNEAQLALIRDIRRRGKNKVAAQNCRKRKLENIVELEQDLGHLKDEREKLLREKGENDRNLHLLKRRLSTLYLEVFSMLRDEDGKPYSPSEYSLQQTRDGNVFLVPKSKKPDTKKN

COC(=O)[C@]12CCC(C)(C)C[C@H]1[C@H]1C(=O)C=C3[C@@]4(C)C=C(C#N)C(=O)C(C)(C)[C@@H]4CC[C@@]3(C)[C@]1(C)CC2
inhibition (RAW264.7 [1]): Active

COC(=O)C(CO)NC(=O)[C@]12CCC(C)(C)C[C@H]1[C@H]1C(=O)C=C3[C@@]4(C)C=C(C#N)C(=O)C(C)(C)[C@@H]4CC[C@@]3(C)[C@]1(C)CC2 (some centres undefined)
inhibition at 0.01 µM (RAW264.7 [2]): 50%
viability at 1 µM [3]: < 10%
inhibition (RAW264.7 [4]): Active
HO-1 expression induction [5]: Active
inhibition (RAW264.7 [1]): Active

COC(=O)C(Cc1cnc[nH]1)NC(=O)[C@]12CCC(C)(C)C[C@H]1[C@H]1C(=O)C=C3[C@@]4(C)C=C(C#N)C(=O)C(C)(C)[C@@H]4CC[C@@]3(C)[C@]1(C)CC2 (some centres undefined)
inhibition (RAW264.7 [4]): inactive

COC(=O)C(NC(=O)[C@]12CCC(C)(C)C[C@H]1[C@H]1C(=O)C=C3[C@@]4(C)C=C(C#N)C(=O)C(C)(C)[C@@H]4CC[C@@]3(C)[C@]1(C)CC2)C(C)C (some centres undefined)
inhibition at 0.01 µM (RAW264.7 [2]): 50%
viability at 1 µM [3]: < 10%
inhibition (RAW264.7 [4]): Active
HO-1 expression induction [5]: Active
inhibition (RAW264.7 [1]): Active

CCNC(=O)[C@]12CCC(C)(C)C[C@H]1[C@H]1C(=O)C=C3[C@@]4(C)C=C(C#N)C(=O)C(C)(C)[C@@H]4CC[C@@]3(C)[C@]1(C)CC2
inhibition (RAW264.7 [4]): Active
HO-1 expression induction [5]: Active

COC(=O)C(C)NC(=O)[C@]12CCC(C)(C)C[C@H]1[C@H]1C(=O)C=C3[C@@]4(C)C=C(C#N)C(=O)C(C)(C)[C@@H]4CC[C@@]3(C)[C@]1(C)CC2 (some centres undefined)
inhibition at 0.01 µM (RAW264.7 [2]): 50%
viability at 1 µM [3]: < 10%
inhibition (RAW264.7 [4]): Active
HO-1 expression induction [5]: Active

COC(=O)C(Cc1ccc(O)cc1)NC(=O)[C@]12CCC(C)(C)C[C@H]1[C@H]1C(=O)C=C3[C@@]4(C)C=C(C#N)C(=O)C(C)(C)[C@@H]4CC[C@@]3(C)[C@]1(C)CC2 (some centres undefined)
inhibition (RAW264.7 [4]): inactive

COC(=O)C(Cc1c[nH]c2ccccc12)NC(=O)[C@]12CCC(C)(C)C[C@H]1[C@H]1C(=O)C=C3[C@@]4(C)C=C(C#N)C(=O)C(C)(C)[C@@H]4CC[C@@]3(C)[C@]1(C)CC2 (some centres undefined)
inhibition (RAW264.7 [4]): inactive

COC(=O)C1CCCN1C(=O)[C@]12CCC(C)(C)C[C@H]1[C@H]1C(=O)C=C3[C@@]4(C)C=C(C#N)C(=O)C(C)(C)[C@@H]4CC[C@@]3(C)[C@]1(C)CC2 (some centres undefined)
inhibition (RAW264.7 [4]): inactive

COC(=O)CC(NC(=O)[C@]12CCC(C)(C)C[C@H]1[C@H]1C(=O)C=C3[C@@]4(C)C=C(C#N)C(=O)C(C)(C)[C@@H]4CC[C@@]3(C)[C@]1(C)CC2)C(=O)OC (some centres undefined)
inhibition (RAW264.7 [4]): inactive

COC(=O)C(CC(C)C)NC(=O)[C@]12CCC(C)(C)C[C@H]1[C@H]1C(=O)C=C3[C@@]4(C)C=C(C#N)C(=O)C(C)(C)[C@@H]4CC[C@@]3(C)[C@]1(C)CC2 (some centres undefined)
inhibition (RAW264.7 [4]): inactive

COC(=O)C(Cc1ccccc1)NC(=O)[C@]12CCC(C)(C)C[C@H]1[C@H]1C(=O)C=C3[C@@]4(C)C=C(C#N)C(=O)C(C)(C)[C@@H]4CC[C@@]3(C)[C@]1(C)CC2 (some centres undefined)
inhibition (RAW264.7 [4]): inactive
